In brackets after ≈: the same amount, converted by molar mass.
Legend:
[1] = system: K. pneumonia (ATCC 43816); assay: Minimal Inhibitory Concentration (MIC) assay, K. pneumonia; format: cell-based; conditions: Klebsiella pneumoniae; K. pneumoniae ATCC43816, CAMHB, 20 hours at 35° C.; read-out: MIC K. pneumoniae ATCC43816
Protocol: (§1) Example 122: Minimal Inhibitory Concentration Protocol (MIC) Assay
(§2) The in vitro potency of compounds to inhibit E. coli (ATCC 25922) and K. pneumonia (ATCC 43816) growth was assessed by MIC (Minimal Inhibitory Concentration) assay. Samples were prepared from 10 mM DMSO stock solutions. After serial 2-fold dilution in DMSO in a master plate (Greiner, Cat No: 651201), 180 μL sterile distilled water was added to 20 μL each aliquot of the samples. Then 10 μL diluted compounds were transferred into a new assay plate (Costar, 3599).
(§3) The growth medium Cation-Adjusted Mueller Hinton Broth (CAMHB) was prepared by adding the 20 mg per liter CaCl2) and 20 mg per liter MgCl2 into the MHB medium (Jianglai Company, sterilized).
(§4) Vials of each of the test microorganisms were maintained frozen in the vapor phase of a liquid nitrogen freezer. The bacteria E. coli ATCC 25922 (KWIKSTIK, 0335K) and K. pneumonia ATCC 43816 were taken out from liquid nitrogen freezer, then thawed in room temperature, and diluted in the CAMHB medium to achieve a final inoculum of 5×10^5 CFU/mL. 90 μL CAMHB with bacteria was dispensed to the assay plate and pipetted 5 times.
(§5) Then the assay plates were incubated for 20 hours at 35° C. in ambient air. Following incubation, the MIC (μg/mL), the lowest concentration of drug that inhibits visible growth of the microorganism was read and recorded throw the microscope.

[2] = target: Escherichia coli LpxH (UDP-2,3-diacylglucosamine hydrolase) (Escherichia coli (strain K12), UniProt P43341); assay: 50% Inhibitory Concentration (IC50) to LpxH, UMP/CMP-Glo Glycosyltransferase Assay kit; format: biochemical
Protocol: Example 121: 50% Inhibitory Concentration (IC50) to UDP-2,3-diacylglucosamine hydrolase (LpxH)
The inhibitory potency of molecules to UDP-2,3-diacylglucosamine hydrolase (LpxH) was determined using the UMP/CMP-Glo™ Glycosyltransferase Assay kit. LpxH hydrolyzes the pyrophosphate bond of UDP-2,3-diacylglucosamine (UDP-DAG) to yield 2,3-diacylglucosamine 1-phosphate (lipid X) and UMP. The assay kit could quantify the UMP production by convert the UMP to ATP and generate light in a luciferase reaction. The compound's effect on the LpxH activity is detected by measuring the light using a luminometer (Envision).

E. coli (ATCC 25922) = assay: Minimal Inhibitory Concentration (MIC) assay, E. coli; format: cell-based; conditions: Escherichia coli, ATCC25922; E. coli ATCC 25922, CAMHB, 20 hours at 35° C.; read-out: MIC E. coli ATCC 25922
Protocol: as §1, §2, §3, §4, §5

Sequence of Escherichia coli LpxH (UDP-2,3-diacylglucosamine hydrolase) (P43341 whole entry): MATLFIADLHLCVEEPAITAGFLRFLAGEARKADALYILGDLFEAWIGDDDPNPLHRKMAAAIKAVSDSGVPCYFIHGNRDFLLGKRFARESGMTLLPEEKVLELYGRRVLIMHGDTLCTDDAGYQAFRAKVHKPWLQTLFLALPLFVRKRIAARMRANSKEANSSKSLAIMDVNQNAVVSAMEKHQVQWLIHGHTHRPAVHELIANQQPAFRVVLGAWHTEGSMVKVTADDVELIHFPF

With NCC1CN(CC2CC(=O)N(c3ccc(S(=O)(=O)N4CCN(c5cc(C(F)(F)F)cc(Cl)n5)CC4)cc3)C2)C1 (stereo not drawn) [Example 35, 4-[[3-(Aminomethyl)azetidin-1-yl]methyl]-1-[4-[4-[6-chloro-4-(trifluoromethyl)-2-pyridyl]piperazin-1-yl]sulfonylphenyl]pyrrolidin-2-one] the MIC [1] was 1.27 µg/mL (≈ 2.16 µM), the IC50 [2] was under 3.41 nM and the MIC (E. coli (ATCC 25922)) was 0.64 µg/mL (≈ 1.09 µM).

For O=C1OC(CN2CCNCC2)CN1c1ccc(S(=O)(=O)N2CCN(c3cc(C(F)(F)F)cc(Cl)n3)CC2)cc1 (stereo not drawn) [Example 29, 3-[4-[4-[6-Chloro-4-(trifluoromethyl)-2-pyridyl]piperazin-1-yl]sulfonylphenyl]-5-(piperazin-1-ylmethyl)oxazolidin-2-one], the MIC [1] was 1.96 µg/mL (≈ 3.33 µM), the IC50 [2] was 25.5 nM and the MIC (E. coli (ATCC 25922)) was 1.96 µg/mL (≈ 3.33 µM).

Molecule N#CC1CN(c2cc(C(F)(F)F)cc(Cl)n2)CCN1S(=O)(=O)c1ccc(N2CC(N)CC2=O)cc1 (stereo not drawn) [Example 67, 1-[4-(4-Amino-2-oxo-pyrrolidin-1-yl)phenyl]sulfonyl-4-[6-chloro-4-(trifluoromethyl)-2-pyridyl]piperazine-2-carbonitrile] has an MIC [1] of 13.2 µg/mL (≈ 25 µM), an IC50 [2] of 149 nM and an MIC (E. coli (ATCC 25922)) of 6.61 µg/mL (≈ 12.5 µM).

Work on NC1CC(=O)N(c2ccc(S(=O)(=O)N3CCN(c4cc(C(F)(F)c5ccncc5)cc(Cl)n4)CC3)cc2)C1 (stereo not drawn) [Example 91, 4-Amino-1-[4-[4-[6-chloro-4-[difluoro(4-pyridyl)methyl]-2-pyridyl]piperazin-1-yl]sulfonylphenyl]pyrrolidin-2-one] yielded an MIC [1] of 1.76 µg/mL (≈ 3.13 µM), an IC50 [2] of 10.7 nM and an MIC (E. coli (ATCC 25922)) of 1.76 µg/mL (≈ 3.13 µM).

For CO[C@@H]1OC(C2OC(=O)N(c3ccc(S(=O)(=O)N4CCN(c5cc(C(F)(F)F)cc(Cl)n5)CC4)cc3)C2C)[C@@H](O)[C@H]1O (stereo partly drawn) [Example 22, 3-[4-[4-[6-Chloro-4-(trifluoromethyl)-2-pyridyl]piperazin-1-yl]sulfonylphenyl]-5-[(3S,4R,5R)-3,4-dihydroxy-5-methoxy-tetrahydrofuran-2-yl]-4-methyl-oxazolidin-2-one], the MIC [1] was 1.99 µg/mL (≈ 3.12 µM), the IC50 [2] was under 3.14 nM and the MIC (E. coli (ATCC 25922)) was 1.99 µg/mL (≈ 3.12 µM).

Work on NC1CC(=O)N(c2ccc(S(=O)(=O)N3CCN(c4cc(C(F)(F)c5ncccn5)cc(Cl)n4)CC3)cc2)C1 (stereo not drawn) [Example 94, 4-Amino-1-[4-[4-[6-chloro-4-[difluoro(pyrimidin-2-yl)methyl]-2-pyridyl]piperazin-1-yl]sulfonylphenyl]pyrrolidin-2-one] yielded an MIC [1] of 3.53 µg/mL (≈ 6.26 µM), an IC50 [2] of 186 nM and an MIC (E. coli (ATCC 25922)) of 3.53 µg/mL (≈ 6.26 µM).

N[C@@H]1CC(=O)N(c2ccc(S(=O)(=O)N3CCN(c4cc(C(F)(F)C5=CCNCC5)cc(Cl)n4)CC3)cc2)C1 [Example 106] gave an MIC [1] of 1.77 µg/mL (≈ 3.12 µM), an IC50 [2] of 199 nM and an MIC (E. coli (ATCC 25922)) of 1.77 µg/mL (≈ 3.12 µM).

In the case of NC1CC(=O)N(c2ccc(S(=O)(=O)N3CCN(c4cc(C(F)(F)c5ccccc5)nc(C5CC5)n4)CC3)cc2)C1 (stereo not drawn) [Example 79, 4-Amino-1-[4-[4-[2-cyclopropyl-6-[difluoro(phenyl)methyl]pyrimidin-4-yl]piperazin-1-yl]sulfonylphenyl]pyrrolidin-2-one], the MIC [1] is reported as over 28.4 µg/mL, the IC50 [2] is reported as 179 nM and the MIC (E. coli (ATCC 25922)) is reported as 14.2 µg/mL (≈ 25 µM).

N[C@@H]1CC(=O)N(c2ccc(S(=O)(=O)N3CCN(c4cc(C(F)(F)[C@@H]5CNCCO5)cc(Cl)n4)CC3)cc2)C1 [Example 104] showed an MIC [1] of 2.01 µg/mL (≈ 3.52 µM), an IC50 [2] of 8.76 nM and an MIC (E. coli (ATCC 25922)) of 1.01 µg/mL (≈ 1.77 µM).

For O=C1O[C@@H]2CCNC[C@@H]2N1c1ccc(S(=O)(=O)N2CCN(c3cc(C(F)(F)F)cc(Cl)n3)CC2)cc1 [Example 18, (3aS,7aR)-3-[4-[4-[6-chloro-4-(trifluoromethyl)-2-pyridyl]piperazin-1-yl]sulfonylphenyl]-3a,4,5,6,7,7a-hexahydrooxazolo[4,5-c]pyridin-2-one], the MIC [1] was 0.91 µg/mL (≈ 1.67 µM), the IC50 [2] was 152 nM and the MIC (E. coli (ATCC 25922)) was 0.91 µg/mL (≈ 1.67 µM).

NCC1COC(=O)N1c1ccc(S(=O)(=O)N2CCN(c3cc(C(F)(F)F)cc(Cl)n3)CC2)cc1 (stereo not drawn) [Example 6, 4-(Aminomethyl)-3-[4-[4-[6-chloro-4-(trifluoromethyl)-2-pyridyl]piperazin-1-yl]sulfonylphenyl]oxazolidin-2-one] gave an MIC [1] of 1.98 µg/mL (≈ 3.81 µM), an IC50 [2] of 44.2 nM and an MIC (E. coli (ATCC 25922)) of 1.98 µg/mL (≈ 3.81 µM).

In the case of NCCN1CCC2(CC1)CN(c1ccc(S(=O)(=O)N3CCN(c4cc(C(F)(F)F)cc(Cl)n4)CC3)cc1)C(=O)O2 [Example 24, 8-(2-Aminoethyl)-3-[4-[4-[6-chloro-4-(trifluoromethyl)-2-pyridyl]piperazin-1-yl]sulfonylphenyl]-1-oxa-3,8-diazaspiro[4.5]decan-2-one], the MIC [1] is reported as 2.24 µg/mL (≈ 3.71 µM), the IC50 [2] is reported as 14.9 nM and the MIC (E. coli (ATCC 25922)) is reported as 2.24 µg/mL (≈ 3.71 µM).

With NC1CC(=O)N(c2ccc(S(=O)(=O)N3CCN(c4cc(C(F)(F)c5ccccc5)nc(Cl)n4)CC3)cc2)C1 (stereo not drawn) [Example 77, 4-Amino-1-[4-[4-[2-chloro-6-[difluoro(phenyl)methyl]pyrimidin-4-yl]piperazin-1-yl]sulfonylphenyl]pyrrolidin-2-one] the MIC [1] was 0.44 µg/mL (≈ 0.781 µM), the IC50 [2] was 7.1 nM and the MIC (E. coli (ATCC 25922)) was 0.44 µg/mL (≈ 0.781 µM).

With CC1(C)C(=O)N(c2ccc(S(=O)(=O)N3CCN(c4cc(C(F)(F)F)cc(Cl)n4)CC3)cc2)CC1N (stereo not drawn) [Example 5, 4-Amino-1-[4-[4-[6-chloro-4-(trifluoromethyl)-2-pyridyl]piperazin-1-yl]sulfonylphenyl]-3,3-dimethyl-pyrrolidin-2-one] the MIC [1] was 16.1 µg/mL (≈ 30.4 µM), the IC50 [2] was 154 nM and the MIC (E. coli (ATCC 25922)) was 8.08 µg/mL (≈ 15.2 µM).

O=C1CC(N2C[C@@H]3C[C@H]2CN3)CN1c1ccc(S(=O)(=O)N2CCN(c3cc(C(F)(F)F)cc(Cl)n3)CC2)cc1 (stereo partly drawn) [Example 55, 1-[4-[4-[6-Chloro-4-(trifluoromethyl)-2-pyridyl]piperazin-1-yl]sulfonylphenyl]-4-[(1S,4S)-2,5-diazabicyclo[2.2.1]heptan-2-yl]pyrrolidin-2-one] gave an MIC [1] of 7.77 µg/mL (≈ 13.3 µM), an IC50 [2] of 51.3 nM and an MIC (E. coli (ATCC 25922)) of 3.88 µg/mL (≈ 6.63 µM).

NC1CC(=O)N(c2ccc(S(=O)(=O)N3CCN(c4cc(C(F)(F)F)cc(Cl)n4)CC3)cc2)C1 (stereo not drawn) [Example 1, 4-Amino-1-[4-[4-[6-chloro-4-(trifluoromethyl)-2-pyridyl]piperazin-1-yl]sulfonylphenyl]pyrrolidin-2-one] gave an MIC [1] of 1.93 µg/mL (≈ 3.83 µM), an IC50 [2] of 260 nM and an MIC (E. coli (ATCC 25922)) of 1.45 µg/mL (≈ 2.88 µM).

For O=C1CC(NC2CNC2)CN1c1ccc(S(=O)(=O)N2CCN(c3cc(C(F)(F)F)cc(Cl)n3)CC2)cc1 (stereo not drawn) [Example 58, 4-(Azetidin-3-ylamino)-1-[4-[4-[6-chloro-4-(trifluoromethyl)-2-pyridyl]piperazin-1-yl]sulfonylphenyl]pyrrolidin-2-one], the MIC [1] was 14.9 µg/mL (≈ 26.6 µM), the IC50 [2] was 28.6 nM and the MIC (E. coli (ATCC 25922)) was 7.44 µg/mL (≈ 13.3 µM).

NCC1CN(c2ccc(S(=O)(=O)N3CCN(c4cc(C(F)(F)F)cc(Cl)n4)CC3)cc2F)C(=O)O1 (stereo not drawn) [Example 63, 5-(Aminomethyl)-3-[4-[4-[6-chloro-4-(trifluoromethyl)-2-pyridyl]piperazin-1-yl]sulfonyl-2-fluoro-phenyl]oxazolidin-2-one] showed an MIC [1] of 7.3 µg/mL (≈ 13.6 µM), an IC50 [2] of 204 nM and an MIC (E. coli (ATCC 25922)) of 1.83 µg/mL (≈ 3.4 µM).

For NC1CC(=O)N(c2ccc(S(=O)(=O)N3CCN(c4cc(C(F)(F)C5CCCOC5)cc(Cl)n4)CC3)cc2)C1 (stereo not drawn) [Example 99, 4-Amino-1-[4-[4-[6-chloro-4-[difluoro(tetrahydropyran-3-yl)methyl]-2-pyridyl]piperazin-1-yl]sulfonylphenyl]pyrrolidin-2-one], the MIC [1] was 0.89 µg/mL (≈ 1.56 µM), the IC50 [2] was under 3.51 nM and the MIC (E. coli (ATCC 25922)) was 4.01 µg/mL (≈ 7.03 µM).

O=C1O[C@@H]2CCCNC[C@@H]2N1c1ccc(S(=O)(=O)N2CCN(c3cc(C(F)(F)F)cc(Cl)n3)CC2)cc1 [Example 19, (3aS,8aR)-3-[4-[4-[6-chloro-4-(trifluoromethyl)-2-pyridyl]piperazin-1-yl]sulfonylphenyl]-4,5,6,7,8,8a-hexahydro-3aH-oxazolo[4,5-c]azepin-2-one] was tested, and the MIC [1] was 1.05 µg/mL (≈ 1.88 µM), the IC50 [2] was 33.9 nM and the MIC (E. coli (ATCC 25922)) was 1.05 µg/mL (≈ 1.88 µM).

With CNCC1CN(c2ccc(S(=O)(=O)N3CCN(c4cc(C(F)(F)F)cc(Cl)n4)CC3)cc2)C(=O)O1 (stereo not drawn) [Example 27, 3-[4-[4-[6-Chloro-4-(trifluoromethyl)-2-pyridyl]piperazin-1-yl]sulfonylphenyl]-5-(methylaminomethyl)oxazolidin-2-one] the MIC [1] was 3.57 µg/mL (≈ 6.69 µM), the IC50 [2] was 22.5 nM and the MIC (E. coli (ATCC 25922)) was 1.78 µg/mL (≈ 3.33 µM).

Work on O=C1OC2(CCNCC2)CN1c1ccc(S(=O)(=O)N2CCN(c3cc(C(F)(F)F)cc(Cl)n3)CC2)cc1 [Example 14, 3-[4-[4-[6-Chloro-4-(trifluoromethyl)-2-pyridyl]piperazin-1-yl]sulfonylphenyl]-1-oxa-3,8-diazaspiro[4.5]decan-2-one] yielded an MIC [1] of 3.5 µg/mL (≈ 6.25 µM), an IC50 [2] of 96.4 nM and an MIC (E. coli (ATCC 25922)) of 1.75 µg/mL (≈ 3.13 µM).

— patent US20250011300A1, “PIPERAZINYLSULFONYLARYL COMPOUNDS FOR TREATMENT OF BACTERIAL INFECTIONS” (Hoffmann-La Roche Inc., priority 2021, published 2025)
